Laboratory results reported in PubChem BioAssay (NCI).
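Results reflect a 48-hour exposure of cells in 96-well plates to compound at five concentrations. The concentration for full growth arrest is given as TGI.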

How the values were obtained:
Assay in all cases: NCI-60 cell line screen, 48 h
[1] = test system: SN12C renal
[2] = test system: ACHN renal
[3] = test system: MDA-MB-231 breast
[4] = test system: MDA-MB-435
[5] = test system: NCI-H460 lung
[6] = test system: UACC-257 melanoma
[7] = test system: OVCAR-4 ovarian
[8] = test system: HL-60(TB) leukemia
[9] = test system: NCI-H522 lung
[10] = test system: HT29 colon
[11] = test system: SNB-19 CNS

SMILES: O=S(=O)(Nc1nc2ccccc2nc1Nc1ccc2ccccc2c1)c1ccccc1
- TGI [1]: > 68.9 µM
- TGI [2]: > 100 µM
- TGI [3]: > 100 µM
- TGI [4]: > 100 µM
- TGI [5]: 28.8 µM
- TGI [6]: > 100 µM
- TGI [7]: > 44.9 µM
- TGI [8]: 68.9 µM
- TGI [9]: 39.6 µM
- TGI [10]: 25.1 µM
- TGI [11]: > 100 µM

SMILES: O=C(O)C(O)C(O)C(=O)O (centres undefined)
- TGI [1]: > 100 µM
- TGI [2]: > 100 µM
- TGI [3]: > 100 µM
- TGI [4]: > 100 µM
- TGI [5]: > 100 µM
- TGI [6]: > 100 µM
- TGI [7]: > 100 µM
- TGI [8]: > 100 µM
- TGI [9]: > 100 µM
- TGI [10]: > 100 µM
- TGI [11]: > 100 µM

SMILES: Cc1nc(C)c(N2CCN(S(=O)(=O)N(Cc3ccccc3)Cc3ccccc3)CC2)c(=O)[nH]1
- TGI [1]: > 100 µM
- TGI [2]: > 73 µM
- TGI [3]: > 64.5 µM
- TGI [4]: > 100 µM
- TGI [5]: > 100 µM
- TGI [6]: > 100 µM
- TGI [7]: > 100 µM
- TGI [8]: > 100 µM
- TGI [9]: 65.1 µM
- TGI [10]: > 100 µM
- TGI [11]: 27.6 µM

SMILES: CC1(C)OC2[C@@H](CO[C@@]3([C@@H](O)CCO)OC(C)(C)O[C@@H]23)O1 (some centres undefined)
- TGI [1]: > 100 µM
- TGI [2]: > 100 µM
- TGI [3]: > 100 µM
- TGI [4]: > 100 µM
- TGI [5]: > 100 µM
- TGI [6]: > 100 µM
- TGI [7]: > 100 µM
- TGI [8]: > 100 µM
- TGI [9]: > 100 µM
- TGI [10]: > 100 µM
- TGI [11]: > 100 µM
